According to patent US20170266147A1, “METHODS OF INCREASING LATENCY OF ANESTHETIC INDUCTION USING KETONE SUPPLEMENTATION” (priority 2016, published 2017):

Assays:
[1] = test system: glucose transporter type 1-deficiency (G1D) syndrome mouse model; experiment: Time until anesthetic induction (isoflurane) in G1D mice; type: in vivo; details: for time required before anesthetic induction: relative to control mice fed a standard diet, p=0.0003 (KD), p=0.0136 (KS), p=0.0003 (KE), FIG. 4
Method: (§1) Animals were kept in groups of 2-5 mice under standard laboratory conditions (12 h:12 h light-dark cycle) in climate-controlled rooms at 22.0±2.0° C. Animal treatment and measuring procedures were performed in accordance with the University of South Florida Institutional Animal Care and Use Committee (IACUC) guidelines (Protocol#00000457). All efforts were made to reduce the number of animals used. The rodents were put under anesthesia once a week to perform blood draws.
(§2) All data are presented as the mean±standard error of the mean (SEM). The effects of compositions comprising ketone supplements on latency to anesthetic induction, as well as on blood βHB levels, were compared to control and/or baseline levels. Data analysis was performed using GRAPHPAD PRISM v6.0a. Results were considered significant when *p<0.05, **p<0.005, ***p<0.0005. Significance was determined by unpaired t-test.
G1D mice between 3-5 months old were chronically fed a standard rodent chow diet (SD), ketogenic diet (KD) (Table 1), standard rodent chow diet mixed with 20% ketone salt (βHB mineral salt) supplementation (SD+KS), or standard diet mixed with 20% ketone ester (1,3 butanediol-acetoacetate diester) supplementation (SD+KE) for 10 weeks. After 10 weeks, anesthesia was induced in an anesthesia chamber with isoflurane gas mixed with air, and the time until anesthetic induction was measured by a blinded observer. Ketone body levels in the blood were measured immediately after induction of anesthesia with a PRECISION XTRA® blood glucose and ketone monitoring kit.

[2] = test system: Sprague-Dawley rats; experiment: Time until anesthetic induction (isoflurane) in Sprague-Dawley rats; type: in vivo, rat; details: 7 days feeding/oral gavage, relative to standard diet fed controls, p=1.32E−6 (ketone diet), p=0.336 (ketone salt), FIG. 1
Method: as §1, with “pairs” for “groups”, “2 rats” for “2-5 mice”, “(Protocol#00001749).” for “(Protocol#00000457).”, “used.” for “used. The rodents were put under anesthesia once a week to perform blood draws.”
as §2, with “PRISM®” for “PRISM”
(§3) Sprague-Dawley rats were fed a standard diet, a ketone diet, or a standard diet supplemented with an oral gavage of the ketone salt βHB mineral salt for 7 days. After 7 days, anesthesia was induced in an anesthesia chamber with isoflurane gas mixed with air, and the time until anesthetic induction was measured by a blinded observer.

[3] = Blood levels of βHB after anesthetic induction in Sprague-Dawley rats; type: in vivo, rat; details: 7 days, relative to baseline levels, p=0.0001 (ketone diet), p=2.21E−05 (ketone salt), FIG. 2
Method: as §2, with “PRISM®” for “PRISM”
as §3

Row | blood levels of βHB after anesthetic induction [3] | Molecule | time required before anesthetic induction ([1]; 10 weeks) | number of seconds required before anesthetic induction ([1]; chronic 10 weeks, 20% in standard diet, relative to baseline levels, p=0.0035, FIG. 3) | number of seconds required before anesthetic induction [2] | delay in anesthetic induction normalized to body weight ([1]; 10 weeks, relative to animals fed a standard diet, p=0.0048 (KD), p=0.0338 (KS), FIG. 5)
1 |  | CC(=O)CC(=O)OCCC(C)OC(=O)CC(C)=O (stereo not drawn) [ketone ester, 1,3 butanediol-acetoacetate diester] | significant increases | significant increase |  | 
2 | significant increase | βHB mineral salt [ketone salt] | significant increases |  | significant increase | remained significant
